The assay deals with Akt phosphorylation induced by IGF-1R. Kind of assay: Western blot analysis of Akt phosphorylation induced by IGF-1 in HT-29 cells. Type of assay: cell-based, Human. The settings on record: for Levels of phosphorylated AKT in treated cells (pAKT/actin): HT-29 cells, IGF-1; for p-AKT relative to levels with 0.1 nM compound: Table B2 lower part; for Normalized phosphorylated AKT (relative to actin) levels relative to 0.1 nM compound treatment: Table B2 upper part. As for the experimental part:
Inhibition of Akt phosphorylation induced by IGF-1R was studied by western blot analysis. Human colon carcinoma HT-29 cells were seeded at a density of 8×10^4 cells/well in a 24-well plate and grown in DME/F12 media containing 10% FBS for 24 h. The cells were then depleted of serum by incubation in DME/F12 media lacking FBS for 24 h. […] […] Lysed cells were centrifuged at 13,000 rpm for 15 min and the protein concentration soluble fraction (supernatant) of each sample was determined using a BCA protein assay (Pierce).
On the technique in general: In western blotting, separated proteins are transferred to a membrane and probed.

As for `O=C(Nc1cccnc1)C1CCCN1c1nc2c(c(Nc3cc(C4CC4)[nH]n3)n1)CCC2` (single isomer, unassigned) [Compound 3a, 1-(4-(5-cyclopropyl-1H-pyrazol-3-ylamino)-6,7-dihydro-5H-cyclopenta[d]pyrimidin-2-yl)-N-(pyridin-3-yl)pyrrolidine-2-carboxamide], the “Levels of phosphorylated AKT in treated cells (pAKT/actin)” value (from here on “Levels … (pAKT/actin)”) (0.1 nM compound) came to 2.64, the “Levels … (pAKT/actin)” value (1 nM compound) turned out to be 1.68, the “Levels … (pAKT/actin)” value (10 nM compound) is 1.86 and the “Levels … (pAKT/actin)” value (100 nM compound) is recorded as 2.19. Moreover, the “p-AKT relative to levels with 0.1 nM compound” value (from here on “p-AKT relative to levels”) is 1.0 (0.1 nM), 0.6 (1 nM), 0.7 (10 nM) and 0.8 (100 nM). Also, the “Normalized phosphorylated AKT (relative to actin) levels relative to 0.1 nM compound treatment” value was found to be 1.0 (0.1 nM), 0.6 (1 nM), 0.7 (10 nM) and 0.8 (100 nM).

For `O=C(Nc1ccc(F)nc1)C1CCCN1c1nc2c(c(Nc3cc(C4CC4)[nH]n3)n1)CCCC2` (single isomer, unassigned) [Compound 14a, 1-(4-(5-cyclopropyl-1H-pyrazol-3-ylamino)-5,6,7,8-tetrahydroquinazolin-2-yl)-N-(6-fluoropyridin-3-yl)pyrrolidine-2-carboxamide], the “Levels … (pAKT/actin)” value reads like this: (0.1 nM compound) 0.73; (1 nM compound) 0.51; (10 nM compound) 0.43; (100 nM compound) 0.35. Besides, the “p-AKT relative to levels” value (0.1 nM) came out at 1.0, the “p-AKT relative to levels” value (1 nM) worked out at 0.7, the “p-AKT relative to levels” value (10 nM) was determined as 0.6 and the “p-AKT relative to levels” value (100 nM) was 0.5. In addition, the “Normalized phosphorylated AKT (relative to actin) levels relative to 0.1 nM compound treatment” value amounted to 1.0 (0.1 nM), 0.7 (1 nM), 0.6 (10 nM) and 0.5 (100 nM).

`O=C(Nc1cccnc1)C1CCCN1c1nc2c(c(Nc3cc(C4CC4)[nH]n3)n1)CCC2` (single isomer, unassigned) [Compound 3b, 1-(4-(5-cyclopropyl-1H-pyrazol-3-ylamino)-6,7-dihydro-5H-cyclopenta[d]pyrimidin-2-yl)-N-(pyridin-3-yl)pyrrolidine-2-carboxamide]: the “Levels … (pAKT/actin)” value reads like this: (0.1 nM compound) 2.25; (1 nM compound) 1.70; (10 nM compound) 0.57; (100 nM compound) 0.02. Moreover, the “p-AKT relative to levels” value was found to be 1.0 (0.1 nM), 0.8 (1 nM), 0.3 (10 nM) and 0.0 (100 nM). The “Normalized phosphorylated AKT (relative to actin) levels relative to 0.1 nM compound treatment” value is, setting by setting: (0.1 nM) 1.0; (1 nM) 0.8; (10 nM) 0.3; (100 nM) 0.0.

On to `O=C(Nc1cncnc1)C1CCCN1c1nc2c(c(Nc3cc(C4CC4)[nH]n3)n1)CCC2` (racemic) [Compound 7, 1-(4-(3-cyclopropyl-1H-pyrazol-5-ylamino)-6,7-dihydro-5H-cyclopenta[d]pyrimidin-2-yl)-N-(pyrimidin-5-yl)pyrrolidine-2-carboxamide], for which the “Levels … (pAKT/actin)” value (0.1 nM compound) is 1.45, the “Levels … (pAKT/actin)” value (1 nM compound) amounted to 2.08, the “Levels … (pAKT/actin)” value (10 nM compound) is listed as 1.09 and the “Levels … (pAKT/actin)” value (100 nM compound) is 1.20. Further, the “p-AKT relative to levels” value by setting is: (0.1 nM) 1.0; (1 nM) 1.4; (10 nM) 0.7; (100 nM) 0.8. The “Normalized phosphorylated AKT (relative to actin) levels relative to 0.1 nM compound treatment” value runs as follows: (0.1 nM) 1.0; (1 nM) 1.4; (10 nM) 0.7; (100 nM) 0.8.

Turning to `O=C(Nc1ccc(F)nc1)C1CCCCN1c1nc2c(c(Nc3cc(C4CC4)[nH]n3)n1)CCC2` (single isomer, unassigned) [Compound 9a, 1-(4-(3-cyclopropyl-1H-pyrazol-5-ylamino)-6,7-dihydro-5H-cyclopenta[d]pyrimidin-2-yl)-N-(6-fluoropyridin-3-yl)piperidine-2-carboxamide], the “Levels … (pAKT/actin)” value by setting is: (0.1 nM compound) 1.24; (1 nM compound) 1.26; (10 nM compound) 0.53; (100 nM compound) 0.02. In addition, the “p-AKT relative to levels” value reads like this: (0.1 nM) 1.0; (1 nM) 1.0; (10 nM) 0.4; (100 nM) 0.0. Moreover, the “Normalized phosphorylated AKT (relative to actin) levels relative to 0.1 nM compound treatment” value reads like this: (0.1 nM) 1.0; (1 nM) 1.0; (10 nM) 0.4; (100 nM) 0.0.

As for `O=C(Nc1ccc(F)nc1)C1CCCCN1c1nc2c(c(Nc3cc(C4CC4)[nH]n3)n1)CCC2` (single isomer, unassigned) [Compound 9b, 1-(4-(3-cyclopropyl-1H-pyrazol-5-ylamino)-6,7-dihydro-5H-cyclopenta[d]pyrimidin-2-yl)-N-(6-fluoropyridin-3-yl)piperidine-2-carboxamide], the “Levels … (pAKT/actin)” value runs as follows: (0.1 nM compound) 1.46; (1 nM compound) 1.55; (10 nM compound) 1.18; (100 nM compound) 0.78. Moreover, the “p-AKT relative to levels” value was found to be 1.0 (0.1 nM), 1.1 (1 nM), 0.8 (10 nM) and 0.5 (100 nM). In addition, the “Normalized phosphorylated AKT (relative to actin) levels relative to 0.1 nM compound treatment” value is, setting by setting: (0.1 nM) 1.0; (1 nM) 1.1; (10 nM) 0.8; (100 nM) 0.5.

Values taken from patent US9499519B2, “Fused pyrimidine compounds and use thereof” (Medivation Technologies, Inc., priority 2012, dated 2016).
